Consider one substance from patent US8642656B2, “Calixarene-based peptide conformation mimetics, methods of use, and methods of making” (priority 2004, dated 2014).

“Also recorded” adds a separate entry of the source. Read-outs that look alike come from different tables or passages of the source.

For data set [1], the system named is LPS from E. coli serotype 0111:B4. As to the kind of experiment: LPS neutralization assay (Limulus amoebocyte lysate, QCL-1000). Format: biochemical. The note with it: read-out: IC50 values (μM) for LPS binding, E. coli 0111:B4. The gist of the method: (§1)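 LPS (0.04 units per strain) is mixed with compound and Limulus amoebocyte lysate. Proenzyme activation is then followed by chromogenic substrate cleavage and pNA absorbance at 405-410 nm. Dose-response curves are fit sigmoidally to give IC50.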

In data set [2] the test system is LPS from E. coli serotype 055:B5. The data set is described as above. Type of data set: biochemical. The gist of the method:
as §1

The next data set concerns LPS from P. aeruginosa. Described as above. The following applies: read-out: IC50 values (μM) for LPS binding, P.a. Type of data set: biochemical, Pseudomonas aeruginosa. The gist of the method: as §1
Another data set deals with LPS from K. pneumoniae. Described as above. Format: biochemical, Klebsiella pneumoniae. The following applies: read-out: IC50 values (μM) for LPS binding, Klebsiella. The gist of the method:
as §1

The subject of another data set is LPS from S. typhimurium. The description is as above. The following applies: read-out: IC50 values (μM) for LPS binding, Salmonella. Type of data set: biochemical, Salmonella typhimurium. The gist of the method: as §1
The test system of another data set is LPS from S. marcascens. The data set is described as above. Format: biochemical, Serratia marcascens. The following applies: read-out: IC50 values (μM) for LPS binding, Serratia. The gist of the method: as §1
The test system of data set [3] is LPS from six species of bacteria. As to the kind of experiment: LPS neutralization assay, overall statements. Type of data set: biochemical. The following applies: library of 23 compounds. The source says:
The ability of compounds to neutralize endotoxin was detected in vitro by using the chromogenic QCL-1000 kit from BioWhittaker, Inc. (Walkersville, Md.), and as described in their protocol. This Limulus amoebocyte lysate (LAL) assay is quantitative for Gram negative bacterial endotoxin (lipopolysaccharide, LPS). In this assay compounds that are active inhibit the LPS-mediated activation of a proenzyme whose active form would release p-nitroaniline (pNA) from a colorless synthetic substrate producing a yellow color (pNA) whose absorption is monitored spectrophotometrically at 405-410 nm. The initial rate of enzyme activation is proportional to the concentration of endotoxin present.
Variants of LPS from six Gram negative bacteria were used: E. coli serotypes 0111:B4 (Combrex, Walkersville, Md.) and 055:B5 (Sigma, St. Louis, Mo.); Klebsiella pneumoniae (List Biologies, San Jose, Calif.); Pseudomonas aeruginosa (List Biologies, San Jose, Calif.); Salmonella typhimurium (List Biologies, San Jose, Calif.), and Serratia marcascens (List Biologies, San Jose, Calif.). The concentration of compound required to neutralize a given LPS and therefore to inhibit the Limulus amoebocyte lysate driven by 0.04 units of any given LPS was determined by dose response curves fit by using a standard sigmoidal function to determined the JC50 value for each lopomimetic compound. […]

The subject of the next data set is LPS from E. coli 055:B5. As to the kind of experiment: Endotoxemia study in mice, lethal dose of E. coli 055:B5 LPS. The note with it: E. coli 055:B5 LPS 600 μg; 5 mg/kg. Format: in vivo. As for the experimental part: In three separate studies, these compounds were tested against LPS derived from E. coli serotype 0111:B4, E. coli serotype 055:B5 LPS, and Salmonella. The compounds (in a final concentration of 2% DMSO v/v), were first mixed individually with LPS, and incubated for 30 minutes prior to i.p. injection into C57/BL6 mice (n=4-8/group). The control mice were treated with DMSO (2% v/v) alone. Each mouse received a lethal dose of LPS, with or without one of the compounds.
(§2) J Bacteriol 93, 1463-4 (1967)). Mice were provided food and water as usual ad libitum, and monitored for several days. When it was observed that mice were in distress and death was imminent, animals were sacrificed; in some cases, mice expired during the night and were found dead the following morning. Data are plotted as the number of surviving mice versus lime in hours. Statistical analysis was performed on the average amount of survival time per group with a maximum or 120 hours (surviving mice) by using the Student's t-test.

A short description of data set [4]: Acute toxicity observed in the endotoxemia model. Format: in vivo, mice. The following applies: i.p., single dose of 50 mg/kg, together with LPS. How it is done:
as §2, with “C57 male black mice were injected i.p. with a solution that contained a lethal dose of LPS [600 μg of LPS from E. coli 055:B5 and Salmonella, and 500 μg of LPS from […]] and 1.25 mg of the lopomimetic compound (a dose of 50 mg/kg) (Rifkind, D. J” for “J”

The IC50 is the concentration that inhibits the measured activity by half.

For “5,11,17,23-Tetra-tert-butyl-25,26,27,28-tetrakis(4-guanidinobutoxy) calix[4]arene trifloroacetic acid salt [Compound 42]”, the half-maximal inhibitory concentration (IC50) was 0.7 µM in data set [1] (Table 2); 0.7 µM in data set [1] (Table 3, errors estimated ±30%); 0.04 µM in data set [2] (Table 2, read-out: IC50 values (μM) for LPS binding, E. coli 055:B4); 0.04 µM in data set [2] (Table 3, errors estimated ±30%, read-out: IC50 values (μM) for LPS binding, E. coli 055:B5); 1.5 µM in the data set with LPS from P. aeruginosa (Table 2); 1.5 µM in the data set with LPS from P. aeruginosa (Table 3, errors estimated ±30%). For the same substance, the concentration for half-maximal inhibition (IC50) in the data set with LPS from K. pneumoniae (Table 2) is 1 µM; in the data set on LPS from K. pneumoniae (Table 3, errors estimated ±30%) it was 1 µM; in the data set with LPS from S. typhimurium (Table 2), 0.6 µM; in the data set with LPS from S. typhimurium (Table 3, errors estimated ±30%) it was 0.6 µM; in the data set with LPS from S. marcascens (Table 2), above 5 µM; with LPS from S. marcascens (Table 3, errors estimated ±30%), above 5 µM. In addition, in data set [3], the “neutralizing LPS, ranking in words” value is listed as “best LPS neutralizing compounds; also recorded: most effective for neutralizing LPS”. For the same substance, in the data set on LPS from E. coli 055:B5, the “survival of LPS-challenged mice” value is listed as “ineffective”. Also, the “sign of acute toxicity” value in data set [4] was “did not demonstrate any sign of acute toxicity”.
